One assay deals with A. junii 1397597. Description: Checkerboard colistin sulphate (CS) plus teicoplanin (TP), MIC/FIC and MBC/FBC. In kind it is cell-based, Acinetobacter junii. The following applies: Acinetobacter junii, 1397597; A. junii; agent alone; CAMHB, 5*10^5 CFU/ml; read-out: MBC. On the procedure:
(§1) Checkerboard analysis to determine minimal inhibitory concentration (MIC)/fractional inhibitory concentration (FIC) and minimal bacterial concentration (MBC)/fractional bacterial concentration (FBC) values of colistin sulphate (CS) plus teicoplanin (TP) for 6 Gram-negative strains with a bacterial load 5(1-10)*10^5 CFU/ml in a cation-adjusted Mueller-Hinton broth (CAMHB). • a. Antimicrobial stock solutions were prepared using sterile distilled water • b. CS was added along the ordinate; TP was added along the abscissa to 96 well, flat bottom, polystyrene panels with no treatment. Colistin alone was tested in triplicates. • c. Serial 2-fold dilutions starting with 640 μg/ml CS and 640 μg/ml TP were made; 15 μl volume of the serial dilutions were added for each agent to the appropriate wells; final volume at 30 μl • d. For each agent tested alone an additional 15 μl media was added to the well. 30 μl were added in control wells where none of the agent was tested. The negative control well contains 150 μl media without any additions • e. From an overnight bacterial culture in tryptic soy broth, 100 μL was added to 10 mL of fresh tryptic soy broth. This was then incubated at 37° C. for 1.5 hour at 180 rpm. • f. Bacteria in 120 μl CAMHB were added to each well (end concentration 5(1-10)*10^5 CFU/ml) • g. Plates were incubated at 37° C. in an ambient air incubator for 24 h • h. Turbidity at OD600 is determined with a plate photometer • i. By using a one-time inoculator 3 μl from each well of the 96-well plate were transferred to three blood agar plates. The plates were incubated over night at 37° C. in an ambient air incubator • j. […] Determination of the fractional inhibitory concentration (FIC) index and fractional bactericidal concentration (FBC) index and characterization of antimicrobial interactions was assessed […]
(§2) Interactive categories were calculated from checkerboard analysis using MIC results from testing each agent alone and MIC results from the combination wells adjacent to the wells with growth in them […]

A further assay has as its system S. maltophilia 1221783. Described as above. The conditions noted are these: agent alone, CAMHB, 5*10^5 CFU/ml. In kind it is cell-based, Stenotrophomonas maltophilia. On the procedure: as §1, §2
For a further assay, the system named is A. haemolyticus 1655843. As to the kind of experiment: Checkerboard fusidic acid (FD) and colistin sulfate (CS), MIC/FIC and MBC/FBC. It counts as cell-based, Acinetobacter haemolyticus. The conditions noted are these: agent alone, CAMHB, 1*10^6 CFU/ml. On the procedure:
Checkerboard assays between fusidic acid (FD) and colistin sulfate (CS) with a bacterial load 5(1-10)*10^5 CFU/ml in cationic adapted Mueller Hinton broth (CAMHB). • a. Antimicrobial stock solutions were prepared using sterile distilled water; • b. CS was added along the ordinate; FD was added along the abscissa to 96 well, flat bottom, polystyrene panels with no treatment. Colistin alone was tested in triplicates; • c. Serial 2-fold dilutions starting with 640 […] CS and 640 μg/ml FD were made; 15 μl volume of the serial dilutions were added for each agent to the appropriate wells—final volume at 30 μl; • d. For each agent tested alone an additional 15 μl media was added to the well. 30 μl were added in control wells where none of the agent was tested. The negative control well contains 150 μl media without any additions; • e. From an overnight bacterial culture in tryptic soy broth, 100 μL was added to 10 mL of fresh tryptic soy broth. This was then incubated at 37° C. for 1.5 hour at 180 rpm; • f. Bacteria in 120 μl CAMHB were added to each well (end concentration 5(1-10)*10^5 CFU/ml); • g. Plates were incubated at 37° C. in an ambient air incubator for 24 h • h. Turbidity at OD600 is determined with a plate photometer • i. By using a one-time inoculator 3 μl from each well of the 96-well plate were transferred to three blood agar plates. The plates were incubated over night at 37° C. in an ambient air incubator; • j. MIC values are defined as lowest concentration which restricts bacterial growth to OD600≤0.1; • k. MBC values were determined by visual reading the lowest concentration which inhibits 99.9% of the growth of bacteria in the wells; • l. Determination of the fractional inhibitory concentration (FIC) index and fractional bactericidal concentration (FBC) index and characterization of antimicrobial interactions was assessed;
FIC calculation was carried out as: (MIC of drug A, tested in combination)/(MIC of drug A, tested alone)+(MIC of drug B, tested in combination)/(MIC of drug B, tested alone). FBC calculation was carried out just as well;
Interactive categories were calculated from checkerboard analysis using MIC results from testing each agent alone and MIC results from the combination wells adjacent to the wells with growth in them.
Determination of the fractional inhibitory concentration (FIC) index and fractional bactericidal concentration (FBC) index and characterization of antimicrobial interactions was assessed:
(ii) Indifference; FIC/FBC>0.5 to <4.0
(iii) Antagonism; FIC/FBC≥4.0
c. Acinetobacter haemolyticus 1655843 (IHMA), colistin resistant (3xCS>16/>16-64/>64)

Where two headings read alike, the source gives them in different places. Bridge positions count the residues as written; N and C are the ends. Square brackets hold non-standard residues; d marks the D form. Peptide text beside a SMILES is read from it. * marks the point of attachment. Heptanoyl(5-Me) = CCC(C)CCCC(=O)*; Dab = NCC[C@H](N)C(=O)O

For orientation: MBC means the lowest tested concentration that kills the bacteria rather than only halting them.

Take `CCC(C)CCCC(=O)N[C@@H](CCN)C(=O)N[C@H](C(=O)N[C@@H](CCN)C(=O)N[C@H]1CCNC(=O)[C@H]([C@@H](C)O)NC(=O)[C@H](CCN)NC(=O)[C@H](CCN)NC(=O)[C@H](CC(C)C)NC(=O)[C@@H](CC(C)C)NC(=O)[C@H](CCN)NC1=O)[C@@H](C)O` (stereo partly drawn) [CS, colistin sulphate] ({Heptanoyl(5-Me)}-[Dab]T[Dab][Dab][Dab][dL]L[Dab][Dab]T; lactam 4-C): the MBC with A. junii 1397597 is 8 µg/mL; with A. haemolyticus 1655843 (Acinetobacter haemolyticus, 1655843, A. haemolyticus 1655843), more than 64 µg/mL. Besides, the MIC in the assay on S. maltophilia 1221783 (Stenotrophomonas maltophilia, 1221783, 24 h, read-out: MIC) is not above 0.5 µg/mL; in the assay on S. maltophilia 1221783 (24 h) it was 0.25 µg/mL; in the assay with A. haemolyticus 1655843 (A. haemolyticus 1655843, 24 h) it was 64 mg/1l.

For the origin of these results see patent US20220016200A1, “PHARMACEUTICAL COMPOSITION FOR THE TREATMENT OF CYSTIC FIBROSIS” (GALENUS G.H. AG, priority 2018, published 2022).
